Assay results as given in publication PMC5562778 (Archives of Toxicology, 2017).

Legend:
[1] = parameters: method as in Van Den Berg et al. [2011]; conditions: lower confidence bound of the Benchmark Dose giving 10% extra cancer incidence; ref Van Den Berg et al. [2011]; cited from earlier work
[2] = target: T1, CYP 1A2 (Homo sapiens, UniProt P05177); conditions: pH 7.4
T1 sequence (P05177 1-516): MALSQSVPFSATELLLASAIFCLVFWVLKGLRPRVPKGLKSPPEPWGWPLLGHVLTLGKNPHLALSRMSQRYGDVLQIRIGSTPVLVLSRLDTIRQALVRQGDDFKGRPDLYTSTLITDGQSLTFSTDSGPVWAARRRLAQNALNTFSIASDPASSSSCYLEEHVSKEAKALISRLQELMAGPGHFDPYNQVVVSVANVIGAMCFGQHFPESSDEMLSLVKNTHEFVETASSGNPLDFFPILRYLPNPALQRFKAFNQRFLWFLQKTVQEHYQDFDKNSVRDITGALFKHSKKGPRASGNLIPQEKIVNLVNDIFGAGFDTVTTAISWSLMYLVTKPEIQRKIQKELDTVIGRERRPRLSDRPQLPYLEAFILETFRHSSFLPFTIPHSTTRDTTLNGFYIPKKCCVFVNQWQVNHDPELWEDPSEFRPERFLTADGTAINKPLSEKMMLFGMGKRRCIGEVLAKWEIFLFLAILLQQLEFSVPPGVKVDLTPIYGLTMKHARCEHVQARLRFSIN
Protocol: The quality of the Chinese and Caucasian liver microsomes was checked by measuring the activity of CYP1A2 and CYP2A6 by the method of Yang et al. ([2012]). The quality of Chinese and Caucasian liver S9 samples was checked by measuring the SULT activity based on the method provided by Wang et al. ([2006]). The details of the methods for the microsomal and S9 in vitro incubations and UPLC analysis for assessing the metabolic capabilities of CYP and SULT enzymes can be found in the supporting materials 1.
The quality of the Chinese and Caucasian liver microsomes was checked by measuring the activity of CYP 1A2 and CYP 2A6 by the method of Yang et al. (Yang et al. 2012). CYP 1A2 and CYP 2A6 are predominant enzymes for formation of 1'-hydroxyestragole (Jeurissen et al. 2007). The activity of CYP 1A2 was measured with the substrate phenacetin, and the activity of CYP 2A6 was checked using the substrate coumarin. […] The samples were centrifuged for 5 min at 16, 000g to precipitate microsomal proteins and analyzed by UPLC.
Before UPLC analysis, all samples were centrifuged for 5 min at 16, 000g to precipitate microsomal or cytosolic proteins. Supernatant of each sample was analyzed on UPLC using a BEH C18 (1.7 μm 2.1×50 mm) column with a guard column and a diode array detector (Acquity, Waters).

[3] = parameters: method as in Bartoli et al. [1996]; conditions: peak at 0.5–2 h; clearance within 7 h of administration; marker for CYP1A2 activity; ref Bartoli et al. [1996]; cited from earlier work
[4] = target: T1, CYP 1A2; conditions: cited from earlier work
[5] = PBK prediction; route not stated; ref Barter et al. [2013]; cited from earlier work
[6] = route not stated; ref Barter et al. [2013]; cited from earlier work

Structure (SMILES) | BMDL10 [1] | Catalytic efficiency of CYP 1A2 mediated conversion, lower in Chinese than Caucasian liver microsomes ([2]; microsomes) [fold] | Catalytic efficiency (Vmax/Km), CYP 1A2 mediated O-deethylation [2] | Peak plasma concentrations and apparent oral clearance, Chinese versus Caucasian subjects [3] | Catalytic efficiency of CYP 1A2, lower for Chinese liver microsomes [4] [fold] | Catalytic efficiency for CYP 1A2 ([4]; microsomes) | Predicted clearance, lower in Chinese than in Caucasian subjects [5] [%] | Experimentally observed clearance, lower in Chinese individuals than in Caucasian volunteers [6] [%]
C=CCc1ccc(OC)cc1 [Estragole, 1-allyl-4-methoxybenzene] | 3.3–6.5 mg/kg bw/day |  |  |  |  |  |  | 
CCOc1ccc(NC(C)=O)cc1 [phenacetin] |  | 3 | 3.1 µl/min/(mg microsomal protein) | not differ | 2 | 0.6-51.4 µl/min/(mg microsomal protein) | 36 | 28
